# Results as given in PMC6151437, “Antibacterial Synthetic Peptides Derived from Bovine Lactoferricin Exhibit Cytotoxic Effect against MDA-MB-468 and MDA-MB-231 Breast Cancer Cell Lines” (Molecules : A Journal of Synthetic Chemistry and Natural …, 2017).
# Like-named read-outs stand apart in the source and are kept apart here. Bridge positions count the residues as written; N and C are the ends. Square brackets hold non-standard residues; d marks the D form. Ends that are not written are not given here. Peptide text beside a SMILES is read from it. I, II: the chains in the order shown. Ahx = NCCCCCC(=O)O
# Experiments:
# [1] = test system: E. coli ATCC 11775; assay type: cell-based
# Experimental: (§1) The minimal inhibitory concentration (MIC) was determined using a microdilution assay. In brief, bacterial strains were incubated for 18 to 24 h at 37 °C in an Muller Hinton broth (MHB) until an optical density of 0.15 to 0.30 (620 nm) was obtained. 90 µL of MHB was mixed with 90 µL of peptide (440 µg/mL), and using a 96-well microtiter plate peptide, serial dilution (200, 100, 50, 25, 12.5, and 6.2 µg/mL) was performed. 10 µL of inoculum (2 × 10^6 CFU/mL) was added to each well. Final volume in each well was 100 µL. Then they were incubated for 24 h at 37 °C, and the absorbance at 620 nm was measured using an Asys Expert Plus ELISA reader. For determining the minimum bactericidal concentration (MBC), a small sample was taken from each well using an inoculation loop, which was then spread on MHA plates and incubated overnight at 37 °C. […] Each of these tests was performed twice (n = 2).
# [2] = test system: E. coli ATCC 25922; assay type: cell-based
# Experimental: as §1
# [3] = assay type: cell-based, human
# Experimental: (§2) Cytotoxicity assays were performed as previously described. Briefly, breast cancer cell lines (100 µL; 2.5 × 10^3 cells/well) were seeded in 96-well flat bottom tissue culture treated plates and were incubated at 37 °C in a 10% CO2 humidified atmosphere for 24 h, allowing for cell adhesion. Then the media was removed, then 100 µL of FBS (5%) and 100 µL of peptide were added. The peptide final concentration was ranging from 200 to 6.25 µg/mL and the final FBS concentration was 2.5%. Plates were incubated 2 h at 37 °C in a 10% CO2 humidified atmosphere (physiologic pH). Negative controls included medium and water. All controls were prepared in triplicate. Cell viability was determined using the MTT assay after 2 h. For this, 10 µL of MTT solution (5 mg/mL) was added to each well, and the plates were incubated for 2 h at 37 °C. Formazan crystals were clarified by centrifugation, the supernatant was discarded, and the crystals were dissolved in DMSO (100 µL). Absorbance (570 nm) was registered on a Bio-Rad 680 microplate reader. (n = 3).
# [4] = test system: E. coli; parameters: method as in ref 15, 25, 26 = [15]; PMID 25815317; doi:10.1155/2015/453826; 15. León M.A. Leal A.L. Almanzar G. Rosas J.E. García J.E. Rivera Z.J. Antibacterial activity of synthetic peptides derived from Lactoferricin against Escherichia coli ATCC 25922 and Enterococcus faec || [25]; PMID 28613262; doi:10.3390/molecules22060987; 25. Huertas N.J. Monroy Z.J.R. Medina R.F. Castañeda J.E.G. Antimicrobial Activity of Truncated and Polyvalent Peptides Derived from the […] Sequence against Escherichia coli ATCC 25922 an || [26]; PMID 28287494; doi:10.3390/molecules22030452; 26. Huertas Méndez N.J. Vargas Casanova Y. Gómez Chimbi A.K. Hernández E. Leal Castro A.L. Melo Diaz J.M. Rivera Monroy Z.J. García Castañeda J.E. Synthetic Peptides Derived from Bovine Lactoferricin; conditions: first of three values given 'respectively', strain not distinguished; cited from earlier work
# [5] = test system: S. enteriditis ATCC 13076; parameters: method as in ref 15, 25, 26 = [15]; PMID 25815317; doi:10.1155/2015/453826; 15. León M.A. Leal A.L. Almanzar G. Rosas J.E. García J.E. Rivera Z.J. Antibacterial activity of synthetic peptides derived from Lactoferricin against Escherichia coli ATCC 25922 and Enterococcus faec || [25]; PMID 28613262; doi:10.3390/molecules22060987; 25. Huertas N.J. Monroy Z.J.R. Medina R.F. Castañeda J.E.G. Antimicrobial Activity of Truncated and Polyvalent Peptides Derived from the FKCRRWQWRMKKGLA Sequence against Escherichia coli ATCC 25922 an || [26]; PMID 28287494; doi:10.3390/molecules22030452; 26. Huertas Méndez N.J. Vargas Casanova Y. Gómez Chimbi A.K. Hernández E. Leal Castro A.L. Melo Diaz J.M. Rivera Monroy Z.J. García Castañeda J.E. Synthetic Peptides Derived from Bovine Lactoferricin; conditions: cited from earlier work
# [6] = test system: S. aureus ATCC 25923; parameters: method as in ref 15, 25, 26 = [15]; PMID 25815317; doi:10.1155/2015/453826; 15. León M.A. Leal A.L. Almanzar G. Rosas J.E. García J.E. Rivera Z.J. Antibacterial activity of synthetic peptides derived from Lactoferricin against Escherichia coli ATCC 25922 and Enterococcus faec || [25]; PMID 28613262; doi:10.3390/molecules22060987; 25. Huertas N.J. Monroy Z.J.R. Medina R.F. Castañeda J.E.G. Antimicrobial Activity of Truncated and Polyvalent Peptides Derived from the FKCRRWQWRMKKGLA Sequence against Escherichia coli ATCC 25922 an || [26]; PMID 28287494; doi:10.3390/molecules22030452; 26. Huertas Méndez N.J. Vargas Casanova Y. Gómez Chimbi A.K. Hernández E. Leal Castro A.L. Melo Diaz J.M. Rivera Monroy Z.J. García Castañeda J.E. Synthetic Peptides Derived from Bovine Lactoferricin; conditions: cited from earlier work
# [7] = assay type: cell-based, human; remark: listed apart in the source
# Experimental: as §2
# [8] = test system: human gastric cancer cell line AGS; conditions: cited from earlier work
# [9] = test system: breast cancer cell line MDA-MB-231; conditions: even at the highest tested concentration (40 µM); cited from earlier work
# Experimental: For the second part of the experiments, all members of each designed peptide family were tested against MDA-MB-468 and MDA-MB-231 breast cancer cell lines (Figure 3). […] When breast cancer cells lines were incubated with linear peptides or cyclic peptides (200 µg/mL), their viability was approximately 80%.
Compound,Antibacterial Effect MBC ([1]; ATCC 11775) [µM],"Antibacterial Effect MIC ([1]; ATCC 11775, 24 h) [µM]","Antibacterial Effect MIC ([1]; E. coli ATCC 11775, microdilution in MHB, 24 h at 37 °C, absorbance 620 nm, n = 2) [µg/mL]","Antibacterial Effect MBC ([1]; E. coli ATCC 11775, plated on MHA overnight at 37 °C, no bacterial growth, n = 2) [µg/mL]",Antibacterial Effect MBC ([2]; ATCC 25922) [µM],"Antibacterial Effect MIC ([2]; ATCC 25922, 24 h) [µM]","Antibacterial Effect MIC ([2]; E. coli ATCC 25922, microdilution in MHB, 24 h at 37 °C, absorbance 620 nm, n = 2) [µg/mL]","Antibacterial Effect MBC ([2]; E. coli ATCC 25922, plated on MHA overnight at 37 °C, no bacterial growth, n = 2) [µg/mL]",IC50 at 2 h ([3]; human) [µM],MIC [4] [µM],MIC [5] [µM],MIC [6] [µM],IC50 [3] [µM],IC50 [7] [µM],IC50 [8] [µM],cytotoxic activity (in words) [9]
N=C(N)NCCC[C@H](NC(=O)[C@H](Cc1c[nH]c2ccccc12)NC(=O)[C@H](CCC(N)=O)NC(=O)[C@H](Cc1c[nH]c2ccccc12)NC(=O)[C@H](CCCNC(=N)N)NC(=O)[C@@H](N)CCCNC(=N)N)C(=O)NCCCC[C@H](NC(=O)[C@H](CCCNC(=N)N)NC(=O)[C@H](Cc1c[nH]c2ccccc12)NC(=O)[C@H](CCC(N)=O)NC(=O)[C@H](Cc1c[nH]c2ccccc12)NC(=O)[C@H](CCCNC(=N)N)NC(=O)[C@@H](N)CCCNC(=N)N)C(=O)NCCCCCC(N)=O [LfcinB (20–25)2] (I: H-RRWQWRK[Ahx]-NH2 / II: H-RRWQWR; amide I:7-II:C),22,22,50,50,11,6,12.5,25,> 100,2.8,22.4,5.6,–,–,–,–
RRWQWR-NH2 [LfcinB (20–25)],203,203,–,–,203,203,–,–,–,–,–,–,> 203,> 203,> 500,weak cytotoxic activity
